Measured values from patent publication US20100069323A1, “COMPOSITION FOR APPLICATION TO SKIN OR MUCOSA” (priority 2006, published 2010).

System: rabbit corneal epithelial cell line SIRC
Test: Evaluation of cytotoxicity of prepared alginic acid (Cell Counting Kit-8 viable cell detection)
Format: cell-based
Description: The test for toxicity of the alginic acid prepared above (Example 1 and Comparative Examples 1 and 2) to cells was carried out. First, an alginic acid solution was prepared by dissolving each alginic acid to a concentration of 0.2 or 2.0% (w/v) in a cell culture medium of medium 199 (GIBCO) supplemented with 10% (v/v) fetal bovine serum (Daiichi Kagaku Yakuhin). Then, rabbit corneal epithelial cell line SIRC (ATCC number: CCL-60) was plated at 2.0×10^5 cells/well in 48-well microtiter plate (Corning), and alginic acid solution prepared above was added to obtain a final concentration of 0.1 or 1.0% (w/v) of alginic acid, and the cells were subsequently cultured under the condition of 37° C., 5% CO2 and 90% relative humidity. […] After 1 hour, the absorbance (450 nm) of the dye developed by reacting with the viable cells was measured using a spectrophotometer (Thermo Electron). With the observed value of the absorbance, cell viability was calculated in the following equation, and the cytotoxicity of each alginic acid was evaluated.
Cell viability(%)=100×(absorbance of the group in which each alginic acid solution was added−absorbance of the medium containing a reagent for viable cell detection)/(absorbance of the control group−absorbance of the medium containing a reagent for viable cell detection) Equation 5

alginic acid [Comparative Example 2]
Cell viability: about 5%
microscopic observation of cells: lost their adhesive capacity and floated
